ChEMBL document CHEMBL5214984, “Identification of Organic Anion Transporter 2 Inhibitors: Screening, Structure-Based Analysis, and Clinical Drug Interaction Risk Assessment” (J Med Chem, 2022)

Assay: Inhibition of human OAT2 tv.1 variant expressed in HEK293 cells assessed as inhibition of [3H]cGMP uptake by scintillation analysis
Format: ADME, cell-based
Settings: HEK293, 3 h

Row | Structure (SMILES) | IC50
1 | CN(C)C(=O)CCSC(SCCC(=O)O)c1cccc(/C=C/c2ccc3ccc(Cl)cc3n2)c1 (stereo not given) [MK-571] | 9.5 µM
2 | COc1ccc(Cl)cc1C(=O)NCCc1ccc(S(=O)(=O)NC(=O)NC2CCCCC2)cc1 [GLYBURIDE] | 14.9 µM
3 | CCCCc1nc(C)c(CC(=S)N(C)C)c(=O)n1Cc1ccc(-c2ccccc2-c2nnn[nH]2)cc1 | 15.7 µM
4 | COc1ccc2c(c1)c(CC(=O)O)c(C)n2C(=O)c1ccc(Cl)cc1 [INDOMETHACIN] | 2.9 µM
5 | CC(C(=O)O)c1cccc(C(=O)c2ccccc2)c1 (stereo not given) [KETOPROFEN] | 14.9 µM
6 | N[C@@H]1[C@H]2CN(c3nc4c(cc3F)c(=O)c(C(=O)O)cn4-c3ccc(F)cc3F)C[C@@H]12 [TROVAFLOXACIN] | 11.5 µM
7 | O=C1CN(/N=C/c2ccc(-c3ccc([N+](=O)[O-])cc3)o2)C(=O)N1 [DANTROLENE] | 16 µM
8 | COC(=O)C1=C(C)NC(C)=C(C(=O)OC)C1c1ccccc1[N+](=O)[O-] [NIFEDIPINE] | 6.5 µM
9 | O=C(O)CSc1nnc(Br)n1-c1ccc(C2CC2)c2ccccc12 | 11.5 µM
10 | CCN(CC)C(=O)/C(C#N)=C/c1cc(O)c(O)c([N+](=O)[O-])c1 [ENTACAPONE] | 1.9 µM
11 | CCCc1nc2c(C)cc(-c3nc4ccccc4n3C)cc2n1Cc1ccc(-c2ccccc2C(=O)O)cc1 | 13.7 µM
12 | O=C1NC(=O)N(/N=C/c2ccc(-c3ccc([N+](=O)[O-])cc3)o2)C1O (stereo not given) | 16 µM

Assay: Lipophilicity, log D of the compound
Settings: octanol/water

Row | Structure (SMILES) | logD
13 | N=C(N)NCCCNC(=O)[C@@H]1CCCCN1C(=O)[C@@H](CC1CCCCC1)NCC(=O)O [INOGATRAN] | 0.04
14 | CN(C)CCc1c[nH]c2ccc(C[C@H]3COC(=O)N3)cc12 [ZOLMITRIPTAN] | -0.63
15 | CNS(=O)(=O)Cc1ccc2[nH]cc(CCN(C)C)c2c1 | -1.08
16 | CN(C)C(=O)CCSC(SCCC(=O)O)c1cccc(/C=C/c2ccc3ccc(Cl)cc3n2)c1 (stereo not given) [MK-571] | 2.55
17 | COc1ccc(Cl)cc1C(=O)NCCc1ccc(S(=O)(=O)NC(=O)NC2CCCCC2)cc1 [GLYBURIDE] | 2.15
18 | CNCC[C@@H](Oc1ccccc1C)c1ccccc1 [ATOMOXETINE] | 0.57
19 | Nc1nc2[nH]cc(CCc3ccc(C(=O)N[C@@H](CCC(=O)O)C(=O)O)cc3)c2c(=O)[nH]1 [PEMETREXED] | -1.93
20 | CCCCc1nc(C)c(CC(=S)N(C)C)c(=O)n1Cc1ccc(-c2ccccc2-c2nnn[nH]2)cc1 | 0.91
21 | COc1ccc2c(c1)c(CC(=O)O)c(C)n2C(=O)c1ccc(Cl)cc1 [INDOMETHACIN] | 1.03
22 | CC(C(=O)O)c1cccc(C(=O)c2ccccc2)c1 (stereo not given) [KETOPROFEN] | 0.21
23 | COc1cccc(OC)c1C(=O)N[C@@H]1C(=O)N2[C@@H]1SC(C)(C)[C@@H]2C(=O)O [METHICILLIN] | -1.88
24 | N[C@@H]1[C@H]2CN(c3nc4c(cc3F)c(=O)c(C(=O)O)cn4-c3ccc(F)cc3F)C[C@@H]12 [TROVAFLOXACIN] | 0.42
25 | C[C@H]1CN(C[C@H](Cc2ccccc2)C(=O)NCC(=O)O)CC[C@@]1(C)c1cccc(O)c1 [ALVIMOPAN] | 0.65
26 | CNn1cc(C(=O)O)c(=O)c2cc(F)c(N3CCN(C)CC3)cc21 [AMIFLOXACIN] | -0.08
27 | Cc1noc(NS(=O)(=O)c2ccc(N)cc2)c1C [SULFISOXAZOLE] | -1.17
28 | Cc1ccc(O)c([C@H](CCN(C(C)C)C(C)C)c2ccccc2)c1 [TOLTERODINE] | 1.82
29 | O=C(O)CSc1nnc(Br)n1-c1ccc(C2CC2)c2ccccc12 | 0.46
30 | CCN(CC)C(=O)/C(C#N)=C/c1cc(O)c(O)c([N+](=O)[O-])c1 [ENTACAPONE] | 0.23
31 | CC(C)(C)NCC(O)COc1cccc2c1CC(O)C(O)C2 (stereo not given) [NADOLOL] | -1.19
32 | CCCc1nc2c(C)cc(-c3nc4ccccc4n3C)cc2n1Cc1ccc(-c2ccccc2C(=O)O)cc1 | 2.35

Assay: Dissociation constant, pKa of the compound
Format: physicochemical
Settings: not given

Row | Structure (SMILES) | pKa
33 | N=C(N)NCCCNC(=O)[C@@H]1CCCCN1C(=O)[C@@H](CC1CCCCC1)NCC(=O)O [INOGATRAN] | 2.1
34 | CN(C)CCc1c[nH]c2ccc(C[C@H]3COC(=O)N3)cc12 [ZOLMITRIPTAN] | 8.7
35 | CNS(=O)(=O)Cc1ccc2[nH]cc(CCN(C)C)c2c1 | 8.7
36 | CN(C)C(=O)CCSC(SCCC(=O)O)c1cccc(/C=C/c2ccc3ccc(Cl)cc3n2)c1 (stereo not given) [MK-571] | 4.6
37 | CNCC[C@@H](Oc1ccccc1C)c1ccccc1 [ATOMOXETINE] | 9.6
38 | Nc1nc2[nH]cc(CCc3ccc(C(=O)N[C@@H](CCC(=O)O)C(=O)O)cc3)c2c(=O)[nH]1 [PEMETREXED] | 3.5
39 | CCCCc1nc(C)c(CC(=S)N(C)C)c(=O)n1Cc1ccc(-c2ccccc2-c2nnn[nH]2)cc1 | 4.2
40 | COc1cccc(OC)c1C(=O)N[C@@H]1C(=O)N2[C@@H]1SC(C)(C)[C@@H]2C(=O)O [METHICILLIN] | 2.8
41 | N[C@@H]1[C@H]2CN(c3nc4c(cc3F)c(=O)c(C(=O)O)cn4-c3ccc(F)cc3F)C[C@@H]12 [TROVAFLOXACIN] | 6
42 | C[C@H]1CN(C[C@H](Cc2ccccc2)C(=O)NCC(=O)O)CC[C@@]1(C)c1cccc(O)c1 [ALVIMOPAN] | 3.2
43 | CNn1cc(C(=O)O)c(=O)c2cc(F)c(N3CCN(C)CC3)cc21 [AMIFLOXACIN] | 6.3
44 | Cc1noc(NS(=O)(=O)c2ccc(N)cc2)c1C [SULFISOXAZOLE] | 4.8
45 | Cc1ccc(O)c([C@H](CCN(C(C)C)C(C)C)c2ccccc2)c1 [TOLTERODINE] | 9.2
46 | O=C(O)CSc1nnc(Br)n1-c1ccc(C2CC2)c2ccccc12 | 3.4
47 | CCN(CC)C(=O)/C(C#N)=C/c1cc(O)c(O)c([N+](=O)[O-])c1 [ENTACAPONE] | 4.2
48 | CN(C)CCCN1c2ccccc2CCc2ccccc21 [IMIPRAMINE] | 9
49 | CC(C)(C)NCC(O)COc1cccc2c1CC(O)C(O)C2 (stereo not given) [NADOLOL] | 9.3
50 | CCCc1nc2c(C)cc(-c3nc4ccccc4n3C)cc2n1Cc1ccc(-c2ccccc2C(=O)O)cc1 | 3.6
